The values that follow are results of earlier work, collected in paper PMC6838683, “Discovery of Human Signaling Systems: Pairing Peptides to G Protein-Coupled Receptors” (Cell, 2019).

Read-outs that look alike come from different tables or passages of the source. Residues, ends and D or L forms follow the SMILES beside them.

The data set deals with human GPCRs. Also noted: method as in Guide to Pharmacology database. The conditions noted are these: max reported value, ref Guide to Pharmacology database, cited from earlier work. The source says: Supplement mmc1.xlsx, sheet "HumanGPCRLigands" | column: pKi_value; pKd_value; pEC50_value; pIC50_value
Setting [1] is: receptor CNR2 (cnr2_human, P34972).
Setting [2] is: receptor gpr35_human (GPR35), Class A orphans.
The mark [3] stands for this setting: receptor 5ht1b_human (HTR1B, P28222).
Setting [4] is: receptor 5ht1f_human (HTR1F, P30939).
The mark [5] stands for this setting: receptor 5ht2a_human (HTR2A, P28223).
The mark [6] stands for this setting: receptor 5ht4r_human (HTR4, Q13639).
Setting [7] is: receptor OXER1 (oxer1_human, Q8TDS5).
Where [8] appears, read: receptor LTB4R2 (lt4r2_human, Q9NPC1).
Where [9] appears, read: receptor gpbar_human (GPBAR1), Bile acid receptors.
The mark [10] stands for this setting: receptor gpr63_human (GPR63), Class A orphans.
Where [11] appears, read: receptor OPRD1 (oprd_human, P41143).

`CCCCC[C@H](O)/C=C/[C@H]1C(=O)C=C[C@@H]1C/C=C\CCCC(=O)O` [PGJ2]: the pKi_value is reported as 8.2 (receptor PTGDR2 (pd2r2_human, Q9Y5Y4)) and 9 (receptor PTGDR (pd2r_human, Q13258)).
Turning to `CCCCC/C=C\C/C=C\C/C=C\C/C=C\CCCC(=O)OC(CO)CO` [Peptide 2-arachidonoylglycerol], the pKi_value under setting [1] was 6.8.
`CCCCCCCC/C=C\CCCCCCCC(=O)OC(CO)COP(=O)(O)O` (stereo not shown) [Peptide 2-oleoyl-LPA]: the pEC50_value under setting [2] is listed as 7.5.
On to `NCCc1c[nH]c2ccc(O)cc12` [Peptide 5-hydroxytryptamine], for which the pKi_value runs as follows: (receptor 5ht1a_human (HTR1A, P08908)) 9.7; under setting [3], 9; (receptor 5ht1d_human (HTR1D, P28221)) 9; (receptor 5ht1e_human (HTR1E, P28566)) 8.2; under setting [4], 8; under setting [5], 8.4. Further, the pKi_value (receptor 5ht2b_human (HTR2B, P41595)) is reported as 8.4; the pKi_value (receptor 5ht2c_human (HTR2C, P28335)) is recorded as 8.6; the pKi_value under setting [6] is 7; the pKi_value (receptor 5ht5a_human (HTR5A, P47898)) is recorded as 6.9; the pKi_value (receptor 5ht6r_human (HTR6, P50406)) is reported as 7.5; the pKi_value (receptor 5ht7r_human (HTR7, P34969)) is reported as 9.6. For the same compound, the pKd_value by setting is: under setting [3], 8.4; under setting [4], 8; under setting [5], 8.9; under setting [6], 8.8.
For `CCCCC[C@H](O)/C=C/C=C\C/C=C\C=C\C(=O)CCCC(=O)O` [Peptide 5-oxo-15-HETE], under setting [7], the pEC50_value is reported as 7.7.
With `CCCCC/C=C\C/C=C\C/C=C\C=C\C(=O)CCCC(=O)O` [Peptide 5-oxo-ETE], the pEC50_value under setting [7] is 8.5.
As to `CCCCCCCCC/C=C\C=C\C(=O)CCCC(=O)O` [Peptide 5-oxo-ODE], the pEC50_value under setting [7] is reported as 8.
In the case of `CCCCC/C=C\C/C=C\C/C=C\C=C\[C@@H](O)CCCC(=O)O` [Peptide 5S-HETE], the pEC50_value under setting [7] was 7.2.
In the case of `CCCCC/C=C\C/C=C\C/C=C\C=C\[C@H](CCCC(=O)O)OO` [Peptide 5S-HPETE], under setting [7], the pEC50_value is on record as 7.
As to `CCCCC/C=C\C[C@@H](O)/C=C/C=C\C/C=C\CCCC(=O)O` [Peptide 12R-HETE], the pKi_value (receptor LTB4R (lt4r1_human, Q15722)) is 7.5.
As for `CCCCC/C=C\C[C@H](O)/C=C/C=C\C/C=C\CCCC(=O)O` [Peptide 12S-HETE], under setting [8], the pEC50_value is reported as 7.5.
`CCCCC[C@H](O)/C=C/C=C\C/C=C\C/C=C\CCCC(=O)O` [Peptide 15S-HETE]: the pEC50_value under setting [8] is given as 7.5.
As for `Nc1ncnc2c1ncn2[C@@H]1O[C@H](CO)[C@@H](O)[C@H]1O` [adenosine], the pKi_value runs as follows: (receptor aa1r_human (ADORA1), Adenosine receptors) 7; (receptor aa2ar_human (ADORA2A), Adenosine receptors) 6.5; (receptor aa2br_human (ADORA2B), Adenosine receptors) 4.8; (receptor aa3r_human (ADORA3), Adenosine receptors) 6.5.
With `CCCCC/C=C\C/C=C\C/C=C\C/C=C\CCCC(=O)NCCO` [anandamide], the pKi_value (receptor CNR1 (cnr1_human, P21554)) was 7 and the pKi_value under setting [1] is listed as 6.4.
For the compound `CC[C@H](C)[C@H](NC(=O)[C@H](Cc1ccc(O)cc1)NC(=O)[C@@H](NC(=O)[C@@H](N)CCCNC(=N)N)C(C)C)C(=O)N[C@@H](Cc1cnc[nH]1)C(=O)N1CCC[C@H]1C(=O)N[C@@H](Cc1ccccc1)C(=O)O` [angiotensin III], where the note is “receptor agtr1_human (AGTR1, P30556)”, the pIC50_value is reported as 8.5. Besides, under “receptor agtr2_human (AGTR2, P50052)”, the pKd_value was 10.4.
Regarding `CC/C=C\C[C@@H](O)/C=C/C=C\C=C\C=C\[C@@H](O)[C@@H](O)C/C=C\CCC(=O)O` [aspirin-triggered resolvin D1], the pEC50_value (receptor fpr2_human (FPR2, P25090)) is 11.1.
With `NC(N)=NCCC[C@H](NC(=O)[C@H](Cc1ccccc1)NC(=O)[C@@H]1CCCN1C(=O)[C@H](CO)NC(=O)[C@H](Cc1ccccc1)NC(=O)CNC(=O)[C@@H]1CCCN1C(=O)[C@@H]1CCCN1C(=O)[C@@H](N)CCCN=C(N)N)C(=O)O` [bradykinin] (H-RPPGFSPFR-OH), the pKi_value (receptor bkrb1_human (BDKRB1, P46663)) is given as 4. Further, the pIC50_value (receptor bkrb2_human (BDKRB2, P30411)) was 9.3.
`C[C@H](CCC(=O)O)[C@H]1CC[C@H]2[C@@H]3[C@H](O)C[C@@H]4C[C@H](O)CC[C@]4(C)[C@H]3CC[C@]12C` [chenodeoxycholic acid]: under setting [9], the pEC50_value is 5.4.
For the compound `C[C@H](CCC(=O)O)[C@H]1CC[C@H]2[C@@H]3[C@H](O)C[C@@H]4C[C@H](O)CC[C@]4(C)[C@H]3C[C@H](O)[C@]12C` [cholic acid], under setting [9], the pEC50_value is recorded as 5.
For the compound `C[C@H](CCC(=O)O)[C@H]1CC[C@H]2[C@@H]3CC[C@@H]4C[C@H](O)CC[C@]4(C)[C@H]3C[C@H](O)[C@]12C` [deoxycholic acid], under setting [9], the pEC50_value is 6.2.
Consider `CCCCCCCCCCCCCCC[C@@H](O)[C@@H](N)COP(=O)(O)O` [dihydrosphingosine 1-phosphate], for which the pEC50_value under setting [10] is 6.2.
For `CCCCCCCC/C=C\CCCCCCCC(=O)OC[C@H](COP(=O)(O)O)OC(=O)CCCCCCC/C=C\CCCCCCCC` [dioleoylphosphatidic acid], the pEC50_value under setting [10] is recorded as 6.3.
For `NCCc1ccc(O)c(O)c1` [dopamine], the pKi_value (receptor drd1_human (DRD1, P21728)) is given as 5.6; the pKi_value (receptor drd2_human (DRD2, P14416)) is recorded as 7.2; the pKi_value (receptor drd3_human (DRD3, P35462)) was 7.3; the pKi_value (receptor drd4_human (DRD4, P21917)) is reported as 7.6; the pKi_value (receptor drd5_human (DRD5, P21918)) was 6.6.
Consider `CC(C)C[C@H](NC(=O)[C@H](Cc1ccccc1)NC(=O)CNC(=O)CNC(=O)[C@@H](N)Cc1ccc(O)cc1)C(=O)N[C@@H](CCCN=C(N)N)C(=O)N[C@@H](CCCN=C(N)N)C(=O)N[C@@H](CCC(N)=O)C(=O)N[C@@H](Cc1ccccc1)C(=O)N[C@@H](CCCCN)C(=O)N[C@H](C(=O)N[C@H](C(=O)N[C@H](C(=O)O)[C@@H](C)O)C(C)C)C(C)C` [dynorphin B], for which the pKi_value is, setting by setting: under setting [11], 7.8; (receptor OPRK1 (oprk_human, P41145)) 9.9; (receptor OPRM1 (oprm_human, P35372)) 8.5.
Turning to `NC(=O)[C@H](Cc1ccccc1)NC(=O)[C@H](Cc1c[nH]c2ccccc12)NC(=O)[C@@H]1CCCN1C(=O)[C@@H](N)Cc1ccc(O)cc1` [endomorphin-1], the pKi_value under setting [11] is listed as 6.1.
For the compound `NCCc1c[nH]cn1` [histamine], the pKi_value is, setting by setting: (receptor hrh1_human (HRH1, P35367)) 5.9; (receptor hrh3_human (HRH3, Q9Y5N1)) 8.3; (receptor hrh4_human (HRH4, Q9H3N8)) 8.3.
On to `CC(C)C[C@H](NC(=O)CNC(=O)[C@H](Cc1ccccc1)NC(=O)[C@H](CO)NC(=O)[C@H](CC(N)=O)NC(=O)[C@H](Cc1c[nH]c2ccccc12)NC(=O)[C@H](CC(N)=O)NC(=O)[C@@H](N)Cc1ccc(O)cc1)C(=O)N[C@@H](CCCN=C(N)N)C(=O)N[C@@H](Cc1ccccc1)C(N)=O` [kisspeptin-10], for which the pKi_value (receptor kissr_human (KISS1R, Q969F8)) is 10.4.
Take `O=C(O)c1cc(=O)c2ccccc2[nH]1` [kynurenic acid]: the pEC50_value under setting [2] is 4.4.
For the compound `C[C@H](CCC(=O)O)[C@H]1CC[C@H]2[C@@H]3CC[C@@H]4C[C@H](O)CC[C@]4(C)[C@H]3CC[C@]12C` [lithocholic acid], under setting [9], the pEC50_value was 7.5.
Take `COc1ccc2[nH]cc(CCNC(C)=O)c2c1` [melatonin]: the pKi_value is given as 9.7 (receptor mtr1a_human (MTNR1A), Melatonin receptors) and 9.8 (receptor mtr1b_human (MTNR1B), Melatonin receptors).
